In US6337417B1, “N-phenyltetrahydrophthalamic acid derivatives, methods of producing same, and herbicides containing same as effective components” (Central Glass Co., Ltd., priority 1994, dated 2002):

How the values were obtained:
Format in all cases: in vivo
Design in all cases: key: 5: completely killed; 4: seriously injured; 3: considerably injured; 2: somewhat injured; 1: slightly injured; 0: not injured (normally grown)
Settings in all cases: 4 weeks after treatment
garden radish = assay: Experiment 2 foliage treatment: garden radish
Procedure, shortened: (§1)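 Herbicidal damage is rated 4 weeks after spraying, by the scoring used in Experiment 1. Treatment is a foliar application of a wettable-powder suspension to two- or three-leaved seedlings grown in potted cultivated soil and kept in a glass chamber.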

paddy rice = assay: Experiment 1 flooded soil treatment: injury to paddy rice
Text: (§2) Paddy soil (clay loam) was put into a pot so as to have a surface area of 1/15500 ares. Uniformly mixed seeds of several kinds of weeds, viz., nobie (barnyardgrass, Echinochloa spp.), broad-leaved weeds, hotarui (bulrush, Scirpus juncoides) and tamagayatsuri (small-flowered umbrellaplant, Cyperus difformis), were sown in the surface layer of the soil in each pot, and then paddy rice seedlings at the two- or three-leaved stage were transplanted into each pot to a depth of 2 cm, and water was fed into each pot so as to provide a 3 cm deep water layer on the soil surface. After 3 days, in other words at the initial stage of germination of nobie (barnyardgrass, Echinochloa spp.), a predetermined amount of a selected compound obtained in a manner analogous to Example 8 in the form of diluted aqueous solution was dropped into the water layer in each pot. After that, the pots were kept in a glass chamber to allow the paddy rice and the weeds to grow, and after the lapse of 4 weeks from the treatment with the selected compounds, the herbicidal effects and the degree of injury to the paddy rice were evaluated. In the table, the herbicidal effects and the degree of injury to the paddy rice are indicated by numerical values, which have the following meaning.
(§3) 0: not injured (normally grown)

[1] = tested on: noasagao (blue morningglory, Ipomoea indica); assay: Experiment 3 foliage treatment: noasagao
Protocol: (§4) Upon seedling stage (two- or three-leaved stage) of ichibi (velvetleaf, Abutilon theophrasti), onamomi (heartleaf cocklebur, Xanthium strumarium) (4L stage), noasagao (blue morningglory, Ipomoea indica) and ooinutade (pale smartweed, Persicaria lapathifolia) which were grown on a cultivated soil put in pots of 1/8850 ares, a selected compound obtained in a manner analogous to Example 8, in suspended wettable powder, was sprayed to each plant. After that, the pots were kept in a glass chamber to allow each plant to grow, and after the lapse of 4 weeks from the treatment with the selected compounds the herbicidal effects were evaluated. The evaluation of the herbicidal effects was similarly conducted as to that of Experiment 1.

[2] = tested on: hotarui (bulrush, Scirpus juncoides); assay: Experiment 1 flooded soil treatment: hotarui
Text: as §2, §3

[3] = tested on: ooinutade (pale smartweed, Persicaria lapathifolia); assay: Experiment 3 foliage treatment: ooinutade
Protocol: as §4

[4] = tested on: mehishiba (henry crabgrass, Digitaria cliaris); assay: Experiment 2 foliage treatment: mehishiba
Procedure, shortened: as §1

[5] = tested on: aobiyu (slender amaranth, Amaranthus viridis); assay: Experiment 2 foliage treatment: aobiyu
Procedure, shortened: as §1

[6] = tested on: ichibi (velvetleaf, Abutilon theophrasti); assay: Experiment 3 foliage treatment: ichibi
Protocol: as §4

[7] = tested on: cockspur (Panicum crus-galli); assay: Experiment 2 foliage treatment: cockspur
Procedure, shortened: as §1

[8] = tested on: tamagayatsuri (small-flowered umbrellaplant, Cyperus difformis); assay: Experiment 1 flooded soil treatment: tamagayatsuri
Text: as §2, §3

rice = assay: Experiment 2 foliage treatment: rice
Procedure, shortened: as §1

[9] = tested on: nobie (barnyardgrass, Echinochloa spp.); assay: Experiment 1 flooded soil treatment: nobie
Text: as §2, §3

[10] = tested on: onamomi (heartleaf cocklebur, Xanthium strumarium); assay: Experiment 3 foliage treatment: onamomi
Protocol: as §4

broad-leaved weeds = assay: Experiment 1 flooded soil treatment: broad-leaved weeds
Text: as §2, §3

SMILES | Herbicidal Effect garden radish (garden radish; 40 g/10a) | Herbicidal Effect garden radish (garden radish; 80 g/10a) | Injury of Paddy (paddy rice; 12.5 g/10a) | Injury of Paddy (paddy rice; 25 g/10a) | Herbicidal Effect hotarui ([2]; 12.5 g/10a) | Herbicidal Effect hotarui ([2]; 25 g/10a) | Herbicidal Effect mehishiba ([4]; 40 g/10a) | Herbicidal Effect mehishiba ([4]; 80 g/10a) | Herbicidal Effect aobiyu ([5]; 40 g/10a) | Herbicidal Effect aobiyu ([5]; 80 g/10a) | Herbicidal Effect cockspur ([7]; 40 g/10a) | Herbicidal Effect cockspur ([7]; 80 g/10a) | Herbicidal Effect tamagayatsuri ([8]; 12.5 g/10a) | Herbicidal Effect tamagayatsuri ([8]; 25 g/10a) | Herbicidal Effect rice (rice; 40 g/10a) | Herbicidal Effect rice (rice; 80 g/10a) | Herbicidal Effect nobie ([9]; 12.5 g/10a) | Herbicidal Effect nobie ([9]; 25 g/10a) | Herbicidal Effect broad-leaved weed (broad-leaved weeds; 12.5 g/10a) | Herbicidal Effect broad-leaved weed (broad-leaved weeds; 25 g/10a) | also measured
CCCOC(=O)C1=C(C(=O)N(C(C)=O)c2cc(SCC(=O)OC)c(Cl)cc2F)CCCC1 [compound 13] | 5 | 5 | 0 | 0.5 | 4 | 4 | 1 | 1 | 5 | 5 | 2 | 2 | 5 | 5 | 1 | 1 | 5 | 5 | 5 | 5 | Herbicidal Effect noasagao ([1]; 4 g/10a): 5; Herbicidal Effect noasagao ([1]; 8 g/10a): 5; Herbicidal Effect ooinutade ([3]; 4 g/10a): 5; Herbicidal Effect ooinutade ([3]; 8 g/10a): 5; Herbicidal Effect ichibi ([6]; 4 g/10a): 5; Herbicidal Effect ichibi ([6]; 8 g/10a): 5; Herbicidal Effect onamomi ([10]; 4 g/10a): 5; Herbicidal Effect onamomi ([10]; 8 g/10a): 5
CCC(=O)N(C(=O)C1=C(C(=O)OC)CCCC1)c1cc(SCC(=O)OC)c(Cl)cc1F [compound 16] | 5 | 5 | 0.5 | 0.5 | 5 | 5 | 1 | 1 | 5 | 5 | 1 | 1 | 5 | 5 | 1 | 1 | 5 | 5 | 5 | 5 | –
CCCCCOC(=O)C1=C(C(=O)N(C(=O)CC)c2cc(SCC(=O)OC)c(Cl)cc2F)CCCC1 [compound 17] | 5 | 5 | 0 | 0.5 | 4 | 5 | 1 | 1 | 5 | 5 | 2 | 2 | 5 | 5 | 1 | 1 | 5 | 5 | 5 | 5 | –
COC(=O)CSc1cc(N(C(=O)C2=C(C(=O)OC)CCCC2)C(=O)c2cccc(F)c2)c(F)cc1Cl [compound 19] | 4 | 5 | 0 | 0.5 | 5 | 5 | 1 | 1 | 5 | 5 | 1 | 1 | 5 | 5 | 1 | 1 | 5 | 5 | 5 | 5 | –
COC(=O)C1=C(C(=O)N(C(C)=O)c2cc(SC(C)C(=O)OC)c(Cl)cc2F)CCCC1 (centres unmarked) [compound 20, N-acetyl-N-[4-chloro-2-fluoro-5-(1-methoxycarbonylethylthio)phenyl]-3,4,5,6-tetrahydrophthalamic acid methyl ester] | 5 | 5 | 0.5 | 0.5 | 5 | 5 | 1 | 1 | 5 | 5 | 2 | 2 | 5 | 5 | 1 | 1 | 5 | 5 | 5 | 5 | Herbicidal Effect noasagao ([1]; 4 g/10a): 4; Herbicidal Effect noasagao ([1]; 8 g/10a): 5; Herbicidal Effect ooinutade ([3]; 4 g/10a): 5; Herbicidal Effect ooinutade ([3]; 8 g/10a): 5; Herbicidal Effect ichibi ([6]; 4 g/10a): 5; Herbicidal Effect ichibi ([6]; 8 g/10a): 5; Herbicidal Effect onamomi ([10]; 4 g/10a): 4; Herbicidal Effect onamomi ([10]; 8 g/10a): 4
CCOC(=O)C1=C(C(=O)N(C(=O)CC)c2cc(SCC(=O)OC)c(Cl)cc2F)CCCC1 [compound 33] | 5 | 5 | – | – | – | – | 1 | 1 | 5 | 5 | 1 | 1 | – | – | 1 | 1 | – | – | – | – | Herbicidal Effect noasagao ([1]; 4 g/10a): 4; Herbicidal Effect noasagao ([1]; 8 g/10a): 5; Herbicidal Effect ooinutade ([3]; 4 g/10a): 5; Herbicidal Effect ooinutade ([3]; 8 g/10a): 5; Herbicidal Effect ichibi ([6]; 4 g/10a): 5; Herbicidal Effect ichibi ([6]; 8 g/10a): 5; Herbicidal Effect onamomi ([10]; 4 g/10a): 5; Herbicidal Effect onamomi ([10]; 8 g/10a): 5
CCCCOC(=O)C1=C(C(=O)N(C(=O)CC)c2cc(SCC(=O)OC)c(Cl)cc2F)CCCC1 [compound 35] | 5 | 5 | – | – | – | – | 1 | 1 | 5 | 5 | 1 | 2 | – | – | 1 | 1 | – | – | – | – | Herbicidal Effect noasagao ([1]; 4 g/10a): 4; Herbicidal Effect noasagao ([1]; 8 g/10a): 5; Herbicidal Effect ooinutade ([3]; 4 g/10a): 5; Herbicidal Effect ooinutade ([3]; 8 g/10a): 5; Herbicidal Effect ichibi ([6]; 4 g/10a): 5; Herbicidal Effect ichibi ([6]; 8 g/10a): 5; Herbicidal Effect onamomi ([10]; 4 g/10a): 4; Herbicidal Effect onamomi ([10]; 8 g/10a): 4
